Active and inactive are the calls of the source. The calls are words filed in the database; no cut-off is given here.
Columns and labels:
[1] = target: Ephrin type-A receptor 7 (Homo sapiens) (UniProt Q15375); assay: Inhibition of EPHA7 (unknown origin) at 0.5 uM relative to control
[2] = target: Mitogen-activated protein kinase 14 (Homo sapiens) (UniProt Q16539); assay: Inhibition of p38alpha (unknown origin) at 0.5 uM relative to control
[3] = target: Angiopoietin-1 receptor (Homo sapiens) (UniProt Q02763); assay: Inhibition of TIE2 (unknown origin) at 0.5 uM relative to control
Angiopoietin-1 receptor (Homo sapiens), sequence (Q02763 whole entry): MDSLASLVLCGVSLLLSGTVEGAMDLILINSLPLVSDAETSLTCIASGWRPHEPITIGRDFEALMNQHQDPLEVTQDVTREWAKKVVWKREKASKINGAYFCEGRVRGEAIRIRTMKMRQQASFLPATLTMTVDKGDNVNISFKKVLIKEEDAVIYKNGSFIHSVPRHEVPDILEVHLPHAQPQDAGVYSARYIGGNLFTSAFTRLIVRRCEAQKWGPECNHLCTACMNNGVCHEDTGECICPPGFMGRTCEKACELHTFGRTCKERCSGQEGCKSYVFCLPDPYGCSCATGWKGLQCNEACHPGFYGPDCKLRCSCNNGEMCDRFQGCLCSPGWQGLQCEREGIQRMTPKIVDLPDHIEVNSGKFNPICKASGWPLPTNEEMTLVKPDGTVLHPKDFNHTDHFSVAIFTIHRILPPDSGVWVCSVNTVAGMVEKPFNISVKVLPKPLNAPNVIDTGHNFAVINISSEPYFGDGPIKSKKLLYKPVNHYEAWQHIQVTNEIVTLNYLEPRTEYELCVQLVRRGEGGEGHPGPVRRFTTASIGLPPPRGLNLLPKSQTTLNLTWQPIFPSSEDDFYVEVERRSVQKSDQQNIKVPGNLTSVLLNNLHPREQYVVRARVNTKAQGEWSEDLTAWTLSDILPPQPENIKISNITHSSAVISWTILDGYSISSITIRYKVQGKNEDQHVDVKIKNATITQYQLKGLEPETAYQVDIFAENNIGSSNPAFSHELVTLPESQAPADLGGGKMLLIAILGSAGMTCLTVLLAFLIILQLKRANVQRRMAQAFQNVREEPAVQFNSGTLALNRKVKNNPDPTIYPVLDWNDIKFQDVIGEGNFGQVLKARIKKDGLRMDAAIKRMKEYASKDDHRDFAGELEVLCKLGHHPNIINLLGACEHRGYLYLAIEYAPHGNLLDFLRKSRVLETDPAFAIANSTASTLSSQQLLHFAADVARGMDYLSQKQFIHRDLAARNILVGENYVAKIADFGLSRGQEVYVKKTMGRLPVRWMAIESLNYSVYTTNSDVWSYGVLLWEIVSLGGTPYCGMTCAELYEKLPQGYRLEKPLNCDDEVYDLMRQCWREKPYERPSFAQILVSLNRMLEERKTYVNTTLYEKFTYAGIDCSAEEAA

GILM3 = assay: Inhibition of cell migration in human GILM3 cells at 1 to 10 uM; type: functional, cell-based; settings: dose 1-10 µM
[4] = target: T1, Tyrosine-protein kinase Mer (Homo sapiens) (UniProt Q12866); assay: Inhibition of MER (unknown origin) at 0.5 uM relative to control
T1 sequence (whole entry): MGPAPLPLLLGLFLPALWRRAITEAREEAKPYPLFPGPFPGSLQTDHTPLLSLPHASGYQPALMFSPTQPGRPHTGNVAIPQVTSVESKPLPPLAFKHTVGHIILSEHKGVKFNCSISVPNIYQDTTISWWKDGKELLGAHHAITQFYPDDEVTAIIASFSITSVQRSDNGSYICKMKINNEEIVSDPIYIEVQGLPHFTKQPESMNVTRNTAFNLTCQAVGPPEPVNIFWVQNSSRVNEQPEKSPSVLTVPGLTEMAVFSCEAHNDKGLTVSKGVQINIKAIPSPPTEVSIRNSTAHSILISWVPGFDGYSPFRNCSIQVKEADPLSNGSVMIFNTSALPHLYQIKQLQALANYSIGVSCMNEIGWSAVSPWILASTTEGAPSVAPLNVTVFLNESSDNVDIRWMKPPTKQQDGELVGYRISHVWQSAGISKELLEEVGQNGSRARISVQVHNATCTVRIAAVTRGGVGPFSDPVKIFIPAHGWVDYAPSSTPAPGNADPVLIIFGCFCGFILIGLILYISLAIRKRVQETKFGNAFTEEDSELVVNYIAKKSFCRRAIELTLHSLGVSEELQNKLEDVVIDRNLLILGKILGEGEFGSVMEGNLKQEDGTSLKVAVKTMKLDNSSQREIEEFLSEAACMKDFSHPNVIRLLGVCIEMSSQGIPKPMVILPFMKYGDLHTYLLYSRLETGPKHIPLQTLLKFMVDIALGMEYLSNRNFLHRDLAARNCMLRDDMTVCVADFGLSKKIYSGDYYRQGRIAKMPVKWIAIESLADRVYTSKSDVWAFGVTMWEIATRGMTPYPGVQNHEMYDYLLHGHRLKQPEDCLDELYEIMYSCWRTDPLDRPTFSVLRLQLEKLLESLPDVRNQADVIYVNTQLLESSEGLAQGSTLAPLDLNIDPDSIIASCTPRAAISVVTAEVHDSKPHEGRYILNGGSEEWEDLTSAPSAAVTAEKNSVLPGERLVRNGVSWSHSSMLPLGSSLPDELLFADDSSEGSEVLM

[5] = target: Receptor-interacting serine/threonine-protein kinase 2 (Homo sapiens) (UniProt O43353); assay: Inhibition of RIPK2 (unknown origin) at 0.5 uM relative to control
Receptor-interacting serine/threonine-protein kinase 2 (Homo sapiens), sequence (O43353 whole entry): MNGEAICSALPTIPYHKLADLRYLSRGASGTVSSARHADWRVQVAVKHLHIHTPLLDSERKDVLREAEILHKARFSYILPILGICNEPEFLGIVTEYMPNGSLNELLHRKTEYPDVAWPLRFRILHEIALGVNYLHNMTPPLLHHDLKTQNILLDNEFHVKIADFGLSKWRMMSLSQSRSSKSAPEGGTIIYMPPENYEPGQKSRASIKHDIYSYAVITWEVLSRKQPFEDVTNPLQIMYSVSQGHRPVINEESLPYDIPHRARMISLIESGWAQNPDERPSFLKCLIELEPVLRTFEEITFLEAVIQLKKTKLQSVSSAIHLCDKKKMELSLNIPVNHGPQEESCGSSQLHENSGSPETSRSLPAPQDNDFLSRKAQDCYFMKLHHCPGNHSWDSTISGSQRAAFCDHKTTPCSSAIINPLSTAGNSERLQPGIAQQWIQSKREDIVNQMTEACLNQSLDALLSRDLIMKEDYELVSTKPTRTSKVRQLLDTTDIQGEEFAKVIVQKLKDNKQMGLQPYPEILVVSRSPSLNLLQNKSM

MDA-MB-231 [6] = assay: Inhibition of FAK/pFAK protein expression in human MDA-MB-231 cells by Western blotting analysis; type: functional, cell-based
MDA-MB-231 [7] = assay: Inhibition of cell migration in human MDA-MB-231 cells; type: functional, cell-based
MDA-MB-231 [8] = assay: Inhibition of HIPK4 protein expression in human MDA-MB-231 cells by Western blotting analysis; type: functional, cell-based
[9] = target: T2, Tyrosine-protein kinase receptor TYRO3 (Homo sapiens) (UniProt Q06418); assay: Inhibition of TYRO3 (unknown origin) at 0.5 uM relative to control
T2 sequence (whole entry): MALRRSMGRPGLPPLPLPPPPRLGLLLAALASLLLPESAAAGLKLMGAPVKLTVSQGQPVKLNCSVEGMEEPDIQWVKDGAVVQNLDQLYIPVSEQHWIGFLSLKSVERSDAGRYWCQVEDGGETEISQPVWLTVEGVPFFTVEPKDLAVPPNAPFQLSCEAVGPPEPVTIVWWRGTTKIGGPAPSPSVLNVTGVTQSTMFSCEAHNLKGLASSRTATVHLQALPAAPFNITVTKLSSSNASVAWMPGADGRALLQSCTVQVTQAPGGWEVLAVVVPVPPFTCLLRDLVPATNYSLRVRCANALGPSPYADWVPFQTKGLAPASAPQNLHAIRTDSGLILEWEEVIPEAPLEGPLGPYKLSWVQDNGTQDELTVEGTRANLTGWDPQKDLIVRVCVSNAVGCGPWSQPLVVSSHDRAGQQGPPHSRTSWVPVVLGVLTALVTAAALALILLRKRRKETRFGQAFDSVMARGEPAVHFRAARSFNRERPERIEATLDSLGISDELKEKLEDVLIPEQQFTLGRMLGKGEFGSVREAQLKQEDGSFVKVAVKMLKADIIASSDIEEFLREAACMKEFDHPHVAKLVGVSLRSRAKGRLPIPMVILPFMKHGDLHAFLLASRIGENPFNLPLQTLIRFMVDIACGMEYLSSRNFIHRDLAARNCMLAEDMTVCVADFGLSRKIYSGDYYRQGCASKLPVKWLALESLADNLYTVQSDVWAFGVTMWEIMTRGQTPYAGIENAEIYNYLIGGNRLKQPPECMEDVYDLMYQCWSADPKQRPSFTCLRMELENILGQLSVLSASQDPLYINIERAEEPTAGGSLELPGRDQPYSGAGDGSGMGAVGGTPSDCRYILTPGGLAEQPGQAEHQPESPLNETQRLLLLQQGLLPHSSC

[10] = target: RAF proto-oncogene serine/threonine-protein kinase (Homo sapiens) (UniProt P04049); assay: Inhibition of CRAF (unknown origin) at 0.5 uM relative to control
RAF proto-oncogene serine/threonine-protein kinase (Homo sapiens), sequence (P04049 whole entry): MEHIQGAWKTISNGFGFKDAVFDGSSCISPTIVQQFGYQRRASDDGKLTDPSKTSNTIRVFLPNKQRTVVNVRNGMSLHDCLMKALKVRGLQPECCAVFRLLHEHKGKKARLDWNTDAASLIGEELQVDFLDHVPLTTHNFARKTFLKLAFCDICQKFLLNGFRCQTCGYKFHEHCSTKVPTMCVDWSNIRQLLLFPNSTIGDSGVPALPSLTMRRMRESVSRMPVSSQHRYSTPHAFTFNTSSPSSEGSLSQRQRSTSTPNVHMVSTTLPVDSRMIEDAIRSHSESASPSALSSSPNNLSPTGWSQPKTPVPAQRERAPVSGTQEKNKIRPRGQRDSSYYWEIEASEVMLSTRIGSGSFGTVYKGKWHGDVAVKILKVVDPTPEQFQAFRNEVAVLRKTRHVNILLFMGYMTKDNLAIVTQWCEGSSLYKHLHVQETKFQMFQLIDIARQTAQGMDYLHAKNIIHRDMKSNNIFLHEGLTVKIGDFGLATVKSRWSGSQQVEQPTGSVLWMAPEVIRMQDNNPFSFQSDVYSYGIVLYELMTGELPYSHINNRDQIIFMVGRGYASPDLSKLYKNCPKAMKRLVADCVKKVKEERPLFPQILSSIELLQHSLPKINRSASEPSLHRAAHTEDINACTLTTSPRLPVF

[11] = target: Vascular endothelial growth factor receptor 2 (Homo sapiens) (UniProt P35968); assay: Inhibition of KDR (unknown origin) at 0.5 uM relative to control
[12] = target: Macrophage colony-stimulating factor 1 receptor (Homo sapiens) (UniProt P07333); assay: Inhibition of FMS (unknown origin) at 0.5 uM relative to control
Macrophage colony-stimulating factor 1 receptor (Homo sapiens), sequence (P07333 whole entry): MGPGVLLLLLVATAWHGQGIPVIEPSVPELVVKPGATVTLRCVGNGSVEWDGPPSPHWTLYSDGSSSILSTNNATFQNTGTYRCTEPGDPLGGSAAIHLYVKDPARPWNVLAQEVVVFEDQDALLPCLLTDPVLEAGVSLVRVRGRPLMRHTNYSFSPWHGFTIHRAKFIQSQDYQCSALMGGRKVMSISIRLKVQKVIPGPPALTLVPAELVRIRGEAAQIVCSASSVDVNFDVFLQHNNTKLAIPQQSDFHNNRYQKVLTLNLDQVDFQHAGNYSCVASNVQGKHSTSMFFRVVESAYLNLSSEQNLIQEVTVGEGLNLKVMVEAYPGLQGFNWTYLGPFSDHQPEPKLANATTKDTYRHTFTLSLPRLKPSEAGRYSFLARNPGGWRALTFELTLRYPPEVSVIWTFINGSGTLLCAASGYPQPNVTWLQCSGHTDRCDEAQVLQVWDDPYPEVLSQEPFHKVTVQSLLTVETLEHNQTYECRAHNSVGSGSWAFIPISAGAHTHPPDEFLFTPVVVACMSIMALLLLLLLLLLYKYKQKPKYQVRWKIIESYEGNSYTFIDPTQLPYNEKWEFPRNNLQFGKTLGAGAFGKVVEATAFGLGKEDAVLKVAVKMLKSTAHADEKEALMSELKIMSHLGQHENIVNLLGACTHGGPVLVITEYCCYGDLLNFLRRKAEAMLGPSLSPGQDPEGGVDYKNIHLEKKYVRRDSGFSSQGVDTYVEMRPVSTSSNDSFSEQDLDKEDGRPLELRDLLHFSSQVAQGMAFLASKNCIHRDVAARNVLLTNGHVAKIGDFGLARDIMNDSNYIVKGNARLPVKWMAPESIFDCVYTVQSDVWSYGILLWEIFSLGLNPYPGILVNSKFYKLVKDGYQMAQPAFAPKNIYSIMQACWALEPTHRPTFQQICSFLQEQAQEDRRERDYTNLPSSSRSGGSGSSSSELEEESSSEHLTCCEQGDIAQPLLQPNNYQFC

[13] = target: Ephrin type-A receptor 4 (Homo sapiens) (UniProt P54764); assay: Inhibition of EPHA4 (unknown origin) at 0.5 uM relative to control
[14] = target: Ephrin type-A receptor 5 (Homo sapiens) (UniProt P54756); assay: Inhibition of EPH-A5 (unknown origin) at 0.5 uM relative to control
[15] = target: Tyrosine-protein kinase receptor UFO (Homo sapiens) (UniProt P30530); assay: Inhibition of AXL (unknown origin) at 0.5 uM relative to control

Ephrin type-A receptor 7 (Homo sapiens), sequence (Q15375 28-998 limits assumed): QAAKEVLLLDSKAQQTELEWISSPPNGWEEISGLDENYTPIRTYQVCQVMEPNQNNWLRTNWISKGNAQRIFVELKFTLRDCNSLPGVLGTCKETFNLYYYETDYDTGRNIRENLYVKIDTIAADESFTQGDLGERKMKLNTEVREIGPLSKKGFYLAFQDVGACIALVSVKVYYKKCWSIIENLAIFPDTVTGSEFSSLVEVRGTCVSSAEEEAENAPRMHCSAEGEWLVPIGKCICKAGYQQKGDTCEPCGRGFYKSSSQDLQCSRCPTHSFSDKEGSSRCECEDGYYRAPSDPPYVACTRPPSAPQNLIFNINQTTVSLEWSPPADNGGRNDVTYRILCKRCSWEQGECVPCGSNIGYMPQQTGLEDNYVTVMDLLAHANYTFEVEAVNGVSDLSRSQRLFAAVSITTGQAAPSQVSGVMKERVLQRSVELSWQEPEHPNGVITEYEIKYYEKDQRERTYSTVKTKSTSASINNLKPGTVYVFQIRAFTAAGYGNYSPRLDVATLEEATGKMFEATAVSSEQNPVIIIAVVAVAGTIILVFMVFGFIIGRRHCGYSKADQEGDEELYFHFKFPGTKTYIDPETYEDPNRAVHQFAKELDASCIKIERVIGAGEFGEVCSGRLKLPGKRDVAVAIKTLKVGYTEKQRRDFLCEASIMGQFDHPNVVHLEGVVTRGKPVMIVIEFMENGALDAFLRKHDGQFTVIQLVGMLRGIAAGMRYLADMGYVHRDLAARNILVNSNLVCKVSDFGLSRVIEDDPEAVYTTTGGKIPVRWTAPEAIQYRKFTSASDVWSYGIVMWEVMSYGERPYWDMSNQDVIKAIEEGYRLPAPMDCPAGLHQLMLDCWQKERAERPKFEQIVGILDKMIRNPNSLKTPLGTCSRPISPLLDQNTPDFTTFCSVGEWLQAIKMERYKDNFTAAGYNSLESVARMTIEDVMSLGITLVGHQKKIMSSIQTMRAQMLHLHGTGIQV
Mitogen-activated protein kinase 14 (Homo sapiens), sequence (Q16539 whole entry): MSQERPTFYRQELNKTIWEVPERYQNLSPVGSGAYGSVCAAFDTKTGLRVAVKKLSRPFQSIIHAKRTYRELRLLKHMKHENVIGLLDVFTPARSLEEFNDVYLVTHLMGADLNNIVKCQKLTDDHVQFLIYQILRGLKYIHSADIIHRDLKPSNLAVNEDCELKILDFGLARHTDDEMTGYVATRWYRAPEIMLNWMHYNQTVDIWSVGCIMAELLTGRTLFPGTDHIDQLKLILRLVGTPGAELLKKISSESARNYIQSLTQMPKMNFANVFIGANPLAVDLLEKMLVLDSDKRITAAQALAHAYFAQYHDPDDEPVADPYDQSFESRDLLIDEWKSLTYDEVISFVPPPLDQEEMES

Row | inhibition [1] [%] | inhibition [2] [%] | inhibition [3] [%] | inhibition [4] [%] | inhibition [5] [%] | inhibition [9] [%] | inhibition [10] [%] | inhibition [11] [%] | inhibition [12] [%] | inhibition [13] [%] | inhibition [14] [%] | inhibition [15] [%] | SMILES | inhibition (GILM3) | inhibition (MDA-MB-231 [6]) | inhibition (MDA-MB-231 [7]) | inhibition (MDA-MB-231 [8])
1 | 22 | 25 | 25 |  |  |  |  |  |  |  |  |  | CSc1nc(C(=O)Nc2ccc(Oc3cc4cnn(C)c4cc3Br)cc2)c(-c2ccc(F)cc2)o1 |  |  |  | 
2 | 41 | 65 |  | 55 | 63 | 82 |  |  |  |  |  |  | CNC(=O)c1cc(Oc2ccc(NC(=O)c3nc(SC)oc3-c3ccc(F)cc3)cc2)ccn1 | Active | Active | Active | Active
3 |  |  |  |  | 65 |  | 57 | 25 | 47 |  |  |  | CNC(=O)c1cc(Oc2ccc(NC(=O)c3n[nH]nc3-c3ccc(F)cc3)cc2)ccn1 |  |  |  | 
4 | 53 | 63 |  | 41 | 51 | 70 |  |  |  | 38 |  |  | CNC(=O)c1cc(Oc2ccc(NC(=O)c3nc(SC)oc3-c3ccc(F)cc3)cc2F)ccn1 |  |  |  | 
5 | 60 |  | 43 |  | 40 | 59 | 63 |  |  |  | 50 |  | CNC(=O)c1cc(Oc2ccc(NC(=O)c3nc(NC)sc3-c3ccc(F)cc3)cc2)ccn1 |  |  |  | 
6 |  |  |  | 49 |  | 65 |  | 53 | 43 |  |  | 52 | CNC(=O)c1cc(Oc2ccc(NC(=O)c3nc(C(F)(F)F)sc3-c3ccc(F)cc3)cc2)ccn1 |  |  |  | 
7 |  |  |  |  |  | 52 |  |  | 65 |  |  | 64 | CNC(=O)c1cc(Oc2ccc(NC(=O)c3nc(SC)n(CCN(C)C)c3-c3ccc(F)cc3)cc2)ccn1 |  |  |  | 
8 |  |  | 88 | 91 |  | 87 |  | 95 |  | 92 | 85 | 91 | CNC(=O)c1cc(Oc2ccc(NC(=O)c3nc(SC)[nH]c3-c3ccc(F)cc3)cc2)ccn1 | Active | Active | Active | Active
9 |  | 15 | 53 | 60 |  | 70 | 11 | 27 | 39 | 18 | 21 | 83 | CNC(=O)c1cc(Oc2ccc(NC(=O)c3nc(S(C)(=O)=O)sc3-c3ccc(F)cc3)cc2)ccn1 | Active | Active | Active | Active
